The results in this text go back to patent US10034886B2, “GLP-1 receptor modulators” (Celgene International II SÀRL, priority 2014, dated 2018).

The target in this test is T1, GLP-1R (Homo sapiens, UniProt P43220).
T1 construct: host or cells: GLP-1R CRE-bla CHO-K1 cells
The test is described as follows: EC20 GLP-1(9-36) PAM cAMP assay: dose response of compound in the presence of fixed concentration of GLP-1(9-36). The settings on record: GLP-1R CRE-bla CHO-K1 cells, read-out: EC20 GLP-1(9-36) PAM EC50. It is filed as cell-based. The gist of the method: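 GLP-1R CRE-bla CHO-K1 cells treated 30 min at 37 °C with 12-point compound dose response plus fixed EC20 GLP-1(9-36), with IBMX, in HBSS/HEPES/0.1% BSA pH 7.4. Total cAMP measured by luminescent detection against standard curve; EC50 and Emax from non-linear regression.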
(cAMP levels reflect the balance of adenylyl cyclase and phosphodiesterase activity.)

Setting [1] is: dose response of compound in presence of fixed concentration of GLP-1(9-36).
Where [2] appears, read: compound dose response with fixed concentration of GLP-1(9-36).

Like-named read-outs stand apart in the source and are kept apart here. Bounds are passed on as bounds.

T1 sequence (P43220 24-463): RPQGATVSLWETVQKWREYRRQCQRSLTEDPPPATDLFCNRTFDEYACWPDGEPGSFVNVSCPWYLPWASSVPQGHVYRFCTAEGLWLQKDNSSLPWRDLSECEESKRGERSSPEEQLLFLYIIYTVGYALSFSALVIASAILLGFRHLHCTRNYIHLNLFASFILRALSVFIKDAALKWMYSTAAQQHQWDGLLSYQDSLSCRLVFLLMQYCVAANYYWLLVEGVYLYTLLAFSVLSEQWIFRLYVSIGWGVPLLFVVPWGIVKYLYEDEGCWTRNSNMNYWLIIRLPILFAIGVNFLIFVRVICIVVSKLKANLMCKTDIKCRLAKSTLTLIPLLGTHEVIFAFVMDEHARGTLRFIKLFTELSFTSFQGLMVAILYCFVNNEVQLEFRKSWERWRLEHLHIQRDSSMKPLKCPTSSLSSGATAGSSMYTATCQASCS
T1 sequence (P01275 100-127 partner limits assumed): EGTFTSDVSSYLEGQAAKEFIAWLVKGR

`CCCCCCCOc1ccc(-c2cnc(-c3ccc(C[C@H](NC(=O)c4ccc(C(C)(C)C)s4)C(=O)N[C@@H](C(=O)O)[C@@H](C)O)cc3)nc2)cc1` [Compound 659]: under setting [1], the concentration giving a half-maximal response (EC50) (in general, the concentration that produces a half-maximal response) was less than 0.8 µM.
Consider `CCCCCCCOc1ccc(-c2cnc(-c3ccc(C[C@H](NC(=O)c4ccc(C5(C)CC5)cc4)C(=O)N4CCC[C@H]4C(=O)O)cc3)nc2)cc1` [Compound 1083], for which the EC50 under setting [1] lay in the range of 0.8 to 2.5 µM.
In the case of `CCCCCCCOc1ccc(-c2cnc(-c3ccc(C[C@H](NC(=O)c4ccc(C(C)(C)C)cc4)C(=O)NCCC(=O)O)cc3)nc2)cc1Cl` [Compound 702], under setting [1], the EC50 is 0.8 to 2.5 µM.
As to `CCC[C@H]1CC[C@H](C2CCN(c3cnc(-c4ccc(C[C@H](NC(=O)c5ccc(C(C)(C)CC)cc5)C(=O)N5CC(C(=O)O)C5)cc4)nc3)CC2)CC1` [Compound 1518], the EC50 under setting [2] was less than 0.8 µM.
Take `COCCc1ccc(OCc2ccc(-c3cnc(-c4ccc(C[C@H](NC(=O)c5ccc(C(C)(C)C)s5)C(=O)N[C@H](C)C(=O)O)cc4)nc3)cc2)cc1` [Compound 1053]: the EC50 under setting [1] was 2.5 to 5 µM.
Still for that read-out and setting: the result for `CC(C)(C)c1ccc(C(=O)N[C@@H](Cc2ccc(-c3ncc(-c4ccc([C@H]5CC[C@H](C(C)(C)C)CC5)cc4)cn3)cc2)C(=O)N2CC(C(=O)O)C2)s1` [Compound 1181] reads 0.8 to 2.5 µM; that for `CC(C)(C)c1ccc(C(=O)N[C@@H](Cc2ccc(-c3ncc(-c4nc(-c5ccc(Cl)c(Cl)c5)no4)cn3)cc2)C(=O)NCCC(=O)O)cc1` [Compound 752], 5 to 10 µM.
Same read-out and setting: the result for `CCCCCCCOc1ccc(-c2cnc(-c3ccc(C[C@H](NC(=O)c4ccc(C(C)(C)C)s4)C(=O)O)cc3)c(C)c2)cc1` [Compound 946] reads 2.5 to 5 µM.
For `CCC[C@H]1CC[C@H](C2CCN(c3cnc(-c4ccc(C[C@H](NC(=O)c5ccc(C(C)(C)C)s5)C(=O)N[C@@H](CN)C(=O)O)cc4)nc3)CC2)CC1` [Compound 1472], the 50% effective concentration (EC50) under setting [2] is less than 0.8 µM.
As for `CCCCCCCOc1ccc(-c2cnc(-c3ccc(C[C@H](NC(=O)c4ccc(C(C)(C)C)cc4)C(=O)N[C@H](CCCCN)C(=O)O)cc3)nc2)cc1` [Compound 466], the EC50 under setting [1] fell in the range of 0.8 to 2.5 µM.
As for `CCC[C@H]1CC[C@H](C2CCN(c3cnc(-c4ccc(C[C@H](NC(=O)c5ccc(C(C)(C)C)s5)C(=O)NCCC(=O)O)cc4)nc3)CC2)CC1` [Compound 1433], the EC50 under setting [2] was less than 0.8 µM.
Take `CCCCCCCOc1ccc(-c2cnc(-c3ccc(C[C@H](NC(=O)c4ccc(C(C)(C)C)cc4)C(=O)N4CCC[C@H]4C(=O)O)cc3)nc2)cc1` [Compound 660]: under setting [1], the EC50 fell in the range of 0.8 to 2.5 µM.
Still for that read-out and setting: the result for `CCc1ccc(/C=C/c2cnc(-c3ccc(C[C@H](NC(=O)c4ccc(C(C)(C)C)s4)C(=O)N4CCC[C@H]4C(=O)O)cc3)nc2)cc1` [Compound 1126] reads 0.8 to 2.5 µM; that for `Cc1ccc(-c2ccc(-c3cnc(-c4ccc(C[C@H](NC(=O)c5ccc(C(C)(C)C)s5)C(=O)N[C@H](C)C(=O)O)cc4)nc3)cc2)cc1C` [Compound 1138], less than 0.8 µM; that for `CCCCCCCOc1ccc(-c2cnc(-c3ccc(C[C@H](NC(=O)c4ccc(C(C)(C)C)s4)C(=O)NS(=O)(=O)CCOC)cc3)nc2)cc1` [Compound 435], 0.8 to 2.5 µM.
As for `C[C@@H](NC(=O)[C@H](Cc1ccc(-c2ncc(-c3ccc(OCCC4CCCCC4)cc3)cn2)cc1)NC(=O)c1ccc(C(C)(C)C)cc1)C(=O)O` [Compound 794], the EC50 under setting [1] lay in the range of 0.8 to 2.5 µM.
Same read-out and setting: the result for `Cc1cc(C)n(-c2ccc(-c3cnc(-c4ccc(C[C@H](NC(=O)c5ccc(C(C)(C)C)s5)C(=O)N[C@H](C)C(=O)O)cc4)nc3)cc2)n1` [Compound 1006] reads 0.8 to 2.5 µM.
With `CCC(C)COc1ccc(-c2cnc(-c3ccc(C[C@H](NC(=O)c4ccc(C(C)(C)C)cc4)C(=O)NCCC(=O)O)cc3)nc2)cc1` (stereo partly shown) [Compound 473], the EC50 under setting [1] lay within 5 to 10 µM.
Still for that read-out and setting: the result for `CCCCCCCOc1ccc(-c2cnc(-c3ccc(C[C@H](NC(=O)c4ccc(C(C)(C)C)cc4)C(=O)NC(C(=O)O)c4ccc(C)cc4)cc3)nc2)cc1` (stereo partly shown) [Compound 454] reads 0.8 to 2.5 µM.
As for `CCC[C@H]1CC[C@H](N2CCN(c3cnc(-c4ccc(C[C@H](NC(=O)c5ccc(C(C)(C)C)s5)C(=O)N5CC(C(=O)O)C5)cc4)nc3)CC2)CC1` [Compound 1435], the EC50 under setting [2] lay within 0.8 to 2.5 µM.
Consider `COCCCCCOc1ccc(-c2cnc(-c3ccc(C[C@H](NC(=O)c4ccc(C(C)(C)C)cc4)C(=O)NCCC(=O)O)cc3)nc2)cc1` [Compound 471], for which, under setting [1], the EC50 was 5 to 10 µM.
For `CCCCCCCOc1ccc(-c2cnc(-c3ccc(C[C@H](NC(=O)c4ccc(C(C)(C)C)s4)C(=O)N4CC(C(=O)NS(C)(=O)=O)C4)cc3)nc2)cc1` [Compound 650], the EC50 under setting [1] was less than 0.8 µM.
For the compound `Cc1ccc(/C=C/c2cnc(-c3ccc(C[C@H](NC(=O)c4ccc(C(C)(C)C)s4)C(=O)N4CC[C@H](C(=O)O)C4)cc3)nc2)cc1` [Compound 1085], under setting [1], the EC50 was in the range of 0.8 to 2.5 µM.
Regarding `CCCCCCCOc1ccc(-c2cnc(-c3ccc(C[C@H](NC(=O)c4ccc(O)c(F)c4)C(=O)N4CC(C(=O)O)C4)cc3)nc2)cc1` [Compound 1104], the EC50 under setting [1] lay within 0.8 to 2.5 µM.
On the same count and under the same terms, the result for `CC(=O)c1cccc(-c2ccc(-c3cnc(-c4ccc(C[C@H](NC(=O)c5ccc(C(C)(C)C)s5)C(=O)N5CC(C(=O)O)C5)cc4)nc3)c(F)c2)c1` [Compound 1193] reads less than 0.8 µM; that for `CCCCCCCOc1ccc(-c2cnc(-c3ccc(C[C@H](NC(=O)c4ccc(C(C)(C)C)cc4)C(=O)N[C@@H](CC4CCCNC4)C(=O)O)cc3)nc2)cc1` (stereo partly shown) [Compound 577], 2.5 to 5 µM.
`CC(C)(C)c1ccc(C(=O)N[C@@H](Cc2ccc(-c3ncc(-c4ccc(-c5cc(Cl)cc(Cl)c5)cc4F)cn3)cc2)C(=O)N2CC(C(=O)O)C2)s1` [Compound 1198]: the EC50 under setting [1] was less than 0.8 µM.
As for `CCCc1ccc(N2CCN(c3cnc(-c4ccc(C[C@H](NC(=O)c5ccc(C(C)(C)C)s5)C(=O)N5CC(C(=O)O)C5)cc4)nc3)CC2)cc1` [Compound 1511], under setting [2], the EC50 is less than 0.8 µM.
For the compound `CCCCCCCOc1ccc(-c2cnc(-c3ccc(C[C@H](NC(=O)c4ccc(C(C)(C)C)s4)C(=O)NCCCN(CC)CC)cc3)nc2)cc1` [Compound 970], under setting [1], the EC50 fell in the range of 2.5 to 5 µM.
On the same count and under the same terms, the result for `CCCCOc1cccc(-c2noc(-c3cnc(-c4ccc(C[C@H](NC(=O)c5ccc(C(C)(C)C)cc5)C(=O)NCCC(=O)O)cc4)nc3)n2)c1` [Compound 759] reads 0.8 to 2.5 µM.
In the case of `CC[C@H]1CC[C@H](c2ccc(-c3ccc(-c4ccc(C[C@H](NC(=O)c5ccc(C(C)(C)C)s5)C(=O)N5CC(C(=O)O)C5)cc4)cn3)cc2)CC1` [Compound 1341], under setting [2], the EC50 is less than 0.8 µM.
`C[C@@H](NC(=O)[C@H](Cc1ccc(-c2ncc(-c3cc(OCc4ccccc4)ncc3F)cn2)cc1)NC(=O)c1ccc(C(C)(C)C)s1)C(=O)O` [Compound 1041]: the EC50 under setting [1] is 0.8 to 2.5 µM.
The same measure, in the same setting: the result for `CCCCCCCOc1ccc(-c2cnc(-c3ccc(C[C@H](NC(=O)c4ccc(C(C)(C)C)s4)C(=O)N4C[C@@H](C#N)C[C@H]4C(=O)O)cc3)nc2)cc1` [Compound 640] reads less than 0.8 µM; that for `CCCOc1ccc(-c2cnc(-c3ccc(C[C@H](NC(=O)c4ccc(C(C)(C)C)cc4)C(=O)NCCC(=O)O)cc3)nc2)cc1` [Compound 708], 0.8 to 2.5 µM.
Take `CCC[C@H]1CC[C@H](C2CCN(c3cnc(-c4ccc(C[C@H](NC(=O)c5ccc(C(C)(C)C)s5)C(=O)NC5(C(=O)O)CCCC5)cc4)nc3)CC2)CC1` [Compound 1470]: under setting [2], the EC50 is less than 0.8 µM.
With `CC(C)CCOc1ccc(-c2ccc(-c3cnc(-c4ccc(C[C@H](NC(=O)c5ccc(C(C)(C)C)s5)C(=O)N[C@H](C)C(=O)O)cc4)nc3)cc2)cc1` [Compound 1294], under setting [2], the EC50 is 0.8 to 2.5 µM.
Still for that read-out and setting: the result for `C[C@@H](NC(=O)[C@H](Cc1ccc(-c2ncc(/C=C/CCCc3ccccc3)cn2)cc1)NC(=O)c1ccc(C(C)(C)C)s1)C(=O)O` [Compound 1247] reads 0.8 to 2.5 µM.
With `CC(C)(C)c1ccc(C(=O)N[C@@H](Cc2ccc(-c3ncc(-c4ccc(C5CCCC5)cc4)cn3)cc2)C(=O)N2CC[C@H](C(=O)O)C2)s1` [Compound 1084], the EC50 under setting [1] was less than 0.8 µM.
Still for that read-out and setting: the result for `CCCCCCCOc1ccc(-c2cnc(-c3ccc(C[C@H](NC(=O)c4ccc(OC(C)C)cc4)C(=O)N4CC[C@H](C(=O)O)C4)cc3)nc2)cc1` [Compound 849] reads 2.5 to 5 µM.
Still for that read-out and setting: the result for `CCCCCCCOc1ccc(-c2cnc(-c3ccc(C[C@H](NC(=O)c4ccc(C(C)(C)C)s4)C(=O)NC[C@H]4CCCN4C)cc3)nc2)cc1` [Compound 973] reads 5 to 10 µM.
For the compound `CC1CCC(c2ccc(-c3cnc(-c4ccc(C[C@H](NC(=O)c5ccc(C(C)(C)C)s5)C(=O)N[C@H](C)C(=O)O)cc4)nc3)cc2)CC1` (stereo partly shown) [Compound 1145], under setting [1], the EC50 is less than 0.8 µM.
For `CCCCCCCOc1ccc(-c2cnc(-c3ccc(C[C@H](NC(=O)c4ccc(C(C)(C)C)s4)C(=O)N[C@@H](C(=O)O)[C@@H](O)c4ccccc4)cc3)nc2)cc1` [Compound 667, (2R,3S)-2-((S)-2-(5-(tert-butyl)thiophene-2-carboxamido)-3-(4-(5-(4-(heptyloxy)phenyl)pyrimidin-2-yl)phenyl)propanamido)-3-hydroxy-3-phenylpropanoic acid], the EC50 under setting [1] lay in the range of 0.8 to 2.5 µM.
With `CCCCCCCOc1ccc(-c2cnc(-c3ccc(C[C@H](NC(=O)c4ccc(C(C)(C)C)s4)C(=O)N4CC(C(=O)O)C4)cc3)nc2)cc1C` [Compound 776], the EC50 under setting [1] was less than 0.8 µM.
The same measure, in the same setting: the result for `CCCCCCCOc1ccc(-c2cnc(-c3ccc(C[C@H](NC(=O)c4ccc(C(C)(C)C)cc4)C(=O)N[C@@H](CC(=O)NCC(=O)O)C(=O)O)cc3)nc2)cc1` [Compound 480] reads 0.8 to 2.5 µM; that for `CC(C)(C)c1ccc(C(=O)N[C@@H](Cc2ccc(-c3ncc(-c4ccc(-c5ccccc5F)cc4F)cn3)cc2)C(=O)N2CC(C(=O)O)C2)s1` [Compound 1194], less than 0.8 µM.
In the case of `C[C@@H](NC(=O)[C@H](Cc1ccc(-c2ncc(-c3cnc(-c4ccccc4)nc3)cn2)cc1)NC(=O)c1ccc(C(C)(C)C)s1)C(=O)O` [Compound 1311], under setting [2], the EC50 lay in the range of 2.5 to 5 µM.
